# Experiments:
# [1] = Nitric oxide (NO) release, Berkeley nitric oxide test strips (Evaluation Method Ai); type: physicochemical; conditions: 37° C.; for onset of release of NO from the coating / time at which steady state of NO release / nitrite anion concentration is reached: coating of compound alone on ePTFE film, PBS 10 mM with 100 μM EDTA; for delayed release of NO from the coating / time at which steady state concentration of nitrite anion is reached: coating with VDF-HFP fluoropolymer on ePTFE film, PBS
# Protocol: The ability of a chemical entity as described herein, or surface having a coating comprising a chemical entity as described herein, to release nitric oxide (NO) is assessed using commercially available Berkely nitric oxide test strips (“Berkeley Life Nitric Oxide Saliva Test Strips”). Instructions for use for such test strips are provided with the packaging of the Berkely nitric oxide test strips, and additionally are described in WO2013/023217A1 and WO2014/039794A2 (incorporated herein by reference).The test strips provide a semi-quantitative measure of NO-derived analytes (primarily aqueous nitrite anion) rather than NO itself, because as is known to the art (Ignarro et al., 1993), aqueous NO has a very short half-life of only seconds, whereas aqueous nitrite anion (which derives from aqueous NO) has a half-life of several hours. As such, the nitrite anion is an appropriate surrogate to measure aqueous NO concentrations. The test strips comprise a nitrite detection pad containing dry chemical reagents responsive to different nitric oxide analytes, thereby, indicating concentrations of nitric oxide. The test strips are capable of detecting a concentration range of the nitric oxide analyte from 0 to 400 μmol/L nitrite with visibly distinct intensities of colorimetric sub-ranges expressed as a red colour (i.e., approximately 700 nm wavelength) of increasing intensity, qualitatively corresponding to micromolarity, specifically, but not limited to: 0 μM, 1 μM to 25 μM, 25 μM to 100 μM, 100 μM to 200 μM, 200 μM to 350 μM, and greater than 400 μM nitrite.
# The surface having a coating to be assessed is submerged in a test solution of PBS, 10.0 mM, pH 7.4, with 100 μM EDTA. NO concentration is assessed at given timepoints by dipping the test strip in the solution. After 5 seconds, the test strip is removed, the strip is folded over and the sample pad is gently pressed against the test pad and held for 10 seconds. The ends are separated and compared to the Berkeley Test Nitric Oxide Scale, where the visibly distinct colorimetric sub-ranges comprise 6 subjective levels of intensity of red wavelengths (i.e., approximately 700 nm wavelength), corresponding to 0 μM, 25 μM, 100 μM, 200 μM, 350 μM, and 400 μM of nitric oxide-derived analytes, depending upon the qualitative intensity of red subjectively observed by a user. […] As shown in the Examples below, because each strip is assigned to one of the 6 subjective intensity levels (the sixth being no response), the resulting NO release plot has discrete jumps rather than a continuous curve, although in practice continuous release is expected to be occurring.
# In separate experiments, chloroform solutions of S-nitrosothiol-containing compound 16 (Example 19) and compound 17 (Example 20) were deposited dropwise onto ePTFE films secured on embroidery hoops, allowing the solvents to evaporate as the solutions were deposited. Once the solvents had evaporated and the resulting coatings were dry, 10 mL of a PBS buffer solution comprising 10 mM phosphate buffered saline with 100 μM EDTA, was poured over the individual coated films in round, polyethylene containers with screw-cap lids and placed in a 37° C. water bath. The PBS buffer solutions were tested periodically for NO release according to Evaluation Method Ai. The NO release profile for the film coated with compound 16 is shown in FIG. 4, and for the film coated with compound 17, in FIG. 5.
# In separate experiments, acetone solutions of 50 mg of the S-nitrosothiol-containing compound 16 (Example 19), compound 18 (Example 22), and copolymer 20 (Example 23) were added to individual mixtures of 200 mg of VDF-HFP fluoropolymer in 10 mL of acetone. The green mixtures were then poured onto 3-inch disks of ePTFE films secured on embroidery hoops, and the solvents evaporated under a stream of argon. […]
# [2] = as above; type: physicochemical; conditions: PBS, 37° C.
# [3] = Example 30, FIG. 12: silicone coating on ePTFE film
# [4] = coating with VDF-HFP fluoropolymer on Pebax nylon film
# [5] = coating with VDF-HFP fluoropolymer on ePE film
# [6] = coating with VDF-HFP fluoropolymer on stainless steel foil
delayed release of NO from the coating [1] [days],time at which steady state concentration of nitrite anion is reached [1] [days],"onset of release of NO from the coating [2, 3]","time at which steady state concentration of nitrite anion is reached [2, 3] [days]","delayed release of NO from the coating [2, 4] [days]","time at which steady state concentration of nitrite anion is reached [2, 4] [days]","delayed release of NO from the coating [2, 5] [days]","time at which steady state concentration of nitrite anion is reached [2, 5] [days]","delayed release of NO from the coating [2, 6] [days]","time at which steady state concentration of nitrite anion is reached [2, 6] [days]",SMILES,onset of release of NO from the coating [1],time at which steady state of NO release / nitrite anion concentration is reached [1] [days]
2,8,,,,,,,,,CC(C)(SN=O)C(NC(=O)CCCCC(=O)NC(C(=O)NCc1ccccc1)C(C)(C)SN=O)C(=O)NCc1ccccc1 (stereo not shown) [Compound 16],immediate release,5
,,,,,,,,,,"CC(C)(SN=O)C(NC(=O)CCCCC(=O)NC(C(=O)Nc1ccccc1)C(C)(C)SN=O)C(=O)Nc1ccccc1 (stereo not shown) [Compound 17, S,S′-((adipoylbis(azanediyl))bis(2-methyl-4-oxo-4-(phenylamino)butane-3,2-diyl)) dinitrothioite]",immediate release,7
2,12,immediate first release,7,4,13,2,15,9,14,"CC(C)(SN=O)C(NC(=O)c1cc(C(=O)NC(C(=O)NCc2ccccc2)C(C)(C)SN=O)cc(C(=O)NC(C(=O)NCc2ccccc2)C(C)(C)SN=O)c1)C(=O)NCc1ccccc1 (stereo not shown) [Compound 18, S,S′,S″-(((benzene-1,3,5-tricarbonyl)tris(azanediyl))tris(4-(benzylamino)-2-methyl-4-oxobutane-3,2-diyl)) trinitrothioite]",,
